Data as given in patent US20240209325A1, “CANCER PROPHYLAXIS AND THERAPY USING TARGETED VIRAL NANOPARTICLES” (priority 2021, published 2024).
“Also recorded” adds a separate entry of the source.

Key:
[1] = tested on: innate immune cells in the lungs (DCs, neutrophils, macrophages); assay: Flow cytometry of innate immune cell profile in lungs; type: in vivo, C57BL/6 mice; conditions: 200 μg i.v., lungs after 24 h; FACS (FIG. 6C)
Method: Lungs were harvested after 24 hours. Harvested organs were each placed in separate gentle MACS C tubes (Miltenyi Biotec) and dissociated with enzymatic solutions (lung dissociation kits, Miltenyi Biotec). The C tube lid was tightly screwed, inverted, and inserted in a gentleMACS dissociator (Militenyi Biotec). Organs were minced and digested on appropriate gentleMACS programs. After digestion, cells were passed through 40 μm pore size strainers and centrifuged at 500 g for 5 min. The cell pellet was resuspended in 5 mL of 1× RBC lysis solution (eBioscience) and incubated at RT for 2 min, followed by the addition of RPMI-1640 medium to stop lysis. Cells were centrifuged again at 500 g for 5 min and resuspended in PBS with 1% BSA and 2 mM EDTA (FACS solution). Total cell count and viability were found using trypan blue solution (Sigma-Aldrich) and a Countess™ automated cell counter (Invitrogen). Cell concentrations were adjusted to 1.0×10^7 cells/mL.
To reduce background staining of antibodies, 0.25 μg of purified rat anti-mouse CD16/32 (Biolegend) was added to 100 μL cell suspensions before adding to the conjugated antibodies. Cells were incubated at RT for ten minutes prior to immunofluorescence staining. All antibodies for immunofluorescence staining were purchased from Biolegend and diluted in FACS solution according to the manufacturer's recommendation. […]

B16F10 melanoma cells = assay: B16F10 i.v. challenge to CPMV and CCMV pre-treated mice (prophylaxis); type: in vivo, C57BL/6J mice
Text: After 7 days, the mice were challenged by i.v. administration of 200,000 B16F10 melanoma cells per mouse. Lungs were harvested at day 21 (day 14 after tumor inoculation) and fixed in a 10% (v/v) neutral-buffered formalin solution overnight. Following fixation, the lungs were stored in 70% (v/v) ethanol (EtOH), and the number of tumor nodules per lung was manually counted.
After tumor nodule counting, the fixed lung samples were submitted to the La Jolla Institute for Immunology for hematoxylin and eosin (H&E) staining and imaging. Paraffin-embedded blocks were sectioned at 4 μm on a Leica RM2125 RTS microtome. The sections were then floated on a 42° C. tissue flotation bath and mounted onto Fisher Superfrost Plus microscope slides and subjected to H&E staining. Scanning was accomplished using a ZEISS AxioScan Z1 using a 20× objective. The ratio of tumor cells to total cells was measured from the histology slides using QuPath software^68.
To investigate the suitability of S100A9-targeted VNPs to serve as a prophylactic immunotherapy preventing manifestation of lung metastasis, we used a lung metastasis mouse model using C57BL/6J mice i.v. challenged with B16F10 melanoma cells. C57BL/6J mice were pre-exposed to the CPMV (therapeutic) and CCMV (control) nanoparticles with and without the H6/G3 targeting ligands, one week before being challenged i.v. with B16F10 melanoma cells (FIG. 4A). Lungs were harvested 2 weeks post tumor challenge, and tumor nodules were manually counted. […] This experiment was repeated one more time with only the CPMV particles as well as the H6 peptide only control (FIG. 4D).

4T1-Luc cells [2] = assay: Treatment of 4T1-Luc lung metastasis (immunotherapy); type: in vivo, Balb/c mice; conditions: 200 μg i.v. 3 days post tumor inoculation
Method: 4T1-luc cells (100,000/mouse) were injected i.v. into female Balb/c mice (n=15). […] Tumor growth was monitored by total bioluminescence imaging based on the i.p. injection of 150 mg/kg of body weight D-luciferin. Total bioluminescence was determined using the Living Image 3.0 software, and ROI were quantified as average counts.
A representative IVIS image on day 9 is shown in FIG. 5E while further imaging can be found in FIG. 13. […] The unabated tumor growth led to the mice in the PBS and CPMV groups all dying within 15 days or reaching their clinical endpoints before being sacrificed (FIG. 13B).

4T1-Luc cells [3] = assay: 4T1-Luc i.v. challenge to CPMV pre-treated mice (prophylaxis); type: in vivo, Balb/c mice
Method: After 5 days, the mice were challenged by i.v. injection of 200,000 4T1-Luc cells. The mice were imaged with the IVIS using luminescent imaging every 3 days by injecting intraperitoneally (i.p.) 150 mg/kg of body weight D-luciferin. ROI measurements were taken through the Living Image 3.0 software. The weight of the mice was also tracked every 3 days. After 25 days (20 days after tumor inoculation), the lungs were collected and fixed in Bouin's solution for 3 days. Each tumor nodule on the lungs was counted manually and averaged between the mice in each group.
To determine whether the prophylactic effect of S100A9-targeted CPMV could be replicated in other tumor models, we first exposed Balb/C mice to CPMV and S100A9-targeted CPMV by i.v. injection, and then challenged mice with luciferase-labeled 4T1 (4T1-Luc) cells. This experimental lung metastatic model mimics metastatic triple negative breast cancer (TNBC). Tumor cell challenge was carried out 5 days post CPMV exposure (FIG. 4G). […] By day 21, all the mice in the PBS treatment group had to be sacrificed due to significant weight loss (FIG. 12B). […] The lungs were harvested after 25 days and fixed in Bouin's solution before manual counting of tumor nodules (FIG. 4H, FIG. 4I). […] There was no significant difference between the CPMV and the CPMV-G3.

S100A9 [4] = target: T1, S100A9 (Mus musculus, UniProt P31725); assay: Confocal imaging of co-localization with S100A9 in tumor-bearing lung sections; type: in vivo, B16F10-inoculated mice
T1 construct: confocal imaging of tumor-bearing lungs sections was performed; from tissue; host or cells: lungs of B16F10-inoculated C57BL/6 mice
T1 sequence (P31725 1-113): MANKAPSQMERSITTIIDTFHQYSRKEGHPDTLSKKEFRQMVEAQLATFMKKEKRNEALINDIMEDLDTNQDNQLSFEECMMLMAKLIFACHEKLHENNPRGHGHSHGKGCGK

[5] = tested on: RAW-Blue cells: Toll-like receptor (TLR) and NOD stimulation; assay: RAW-Blue immunogenicity assay (SEAP, QUANTI-Blue); type: cell-based; conditions: for immunogenicity, activation of NF-κB and AP-1, CPMV compared to CCMV (in words): FIG. 6B, 0.5 μg, 18 hours per method
Method: The immunogenicity of CPMV and CCMV was compared through a RAW-Blue™ assay (Invivogen). Briefly, 100,000 RAW-Blue™ cells/well were incubated with 0.5 μg of CPMV and CCMV, 50 EU mL-1 E. coli endotoxin standard control (ThermoScientific), or culture media for 18 hours. Toll-like receptor (TLR) and nucleotide-binding oligomerization domain (NOD) stimulation was assessed by measuring the levels of secreted embryonic alkaline phosphatase (SEAP) using a QUANTI-Blue™ (Invivogen) assay. Absorbance was measured at 655 nm using a Tecan microplate reader.
The immunogenicity between CPMV and its peptide-conjugated counterparts was also assessed using a RAW-Blue™ assay. […] A QUANTI-Blue™ assay was run like before, and absorbance was measured at 655 nm.

[6] = Biodistribution of Cy5-labeled CPMV and CCMV particles after i.v. injection (ex vivo IVIS); conditions: for accumulation/clearance in liver (share of fluorescence signal): Cy5-labeled particles, 200 μg i.v., organs harvested after 24 h; for lung homing (in words): healthy and B16F10 tumor-bearing mice, i.v., 24 h
Method: Healthy and B16F10 metastatic tumor-bearing C57BL/6 female mice were used for biodistribution studies of the Cy5-labeled CPMV and CCMV from Section 2. B16F10 cells (200,000 cells/mouse) were administered i.v. and the tumors were matured for one week. […] After 24 hours, the lungs were harvested and then imaged and quantified for fluorescence using the IVIS (Xenogen).
Both healthy and B16F10 tumor-bearing mice were injected with native and H6/G3-conjugated CPMV and CCMV; to enable tracking the nanoparticles were labeled with Cy5. Lungs and other organs were harvested 24 h following intravenous (i.v.) nanoparticle injection and imaged ex vivo to observe localization of the nanoparticles in the lungs, spleen, kidney, and liver (FIG. 3A).

S100A9 [7] = target: T2, S100A9 (Homo sapiens, UniProt P06702); conditions: peptides that target or recognize and bind S100A9; screening described in Park et al. 2021; cited from earlier work
T2 sequence (P06702 1-114): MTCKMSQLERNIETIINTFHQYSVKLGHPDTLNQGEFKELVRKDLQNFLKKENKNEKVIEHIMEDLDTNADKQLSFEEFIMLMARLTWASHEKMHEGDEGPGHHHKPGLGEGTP

[8] = target: T3, CPMV-Cy5-PEG (cowpea mosaic virus nanoparticle without targeting peptide) (Cowpea mosaic virus, UniProt P03599 460-833; P03599 834-1022); assay: confocal imaging of tumor-bearing mouse lung sections after i.v. injection of the particles, S100A9 stained with antibody
T3 sequence 1: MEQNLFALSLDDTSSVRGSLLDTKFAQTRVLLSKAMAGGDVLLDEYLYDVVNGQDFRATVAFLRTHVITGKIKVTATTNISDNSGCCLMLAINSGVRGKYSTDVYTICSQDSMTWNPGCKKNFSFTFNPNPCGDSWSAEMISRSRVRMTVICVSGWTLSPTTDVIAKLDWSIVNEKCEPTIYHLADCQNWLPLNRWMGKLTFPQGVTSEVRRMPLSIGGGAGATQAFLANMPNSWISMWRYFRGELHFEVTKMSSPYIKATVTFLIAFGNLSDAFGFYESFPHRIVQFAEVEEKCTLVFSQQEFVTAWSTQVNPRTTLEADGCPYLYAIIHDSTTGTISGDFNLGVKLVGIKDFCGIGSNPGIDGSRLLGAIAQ
T3 sequence 2: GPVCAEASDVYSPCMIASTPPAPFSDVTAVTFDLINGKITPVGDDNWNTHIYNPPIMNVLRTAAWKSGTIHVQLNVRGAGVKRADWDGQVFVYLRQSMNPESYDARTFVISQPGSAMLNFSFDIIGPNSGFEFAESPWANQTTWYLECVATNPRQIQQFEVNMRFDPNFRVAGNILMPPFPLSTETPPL

**Q.** What does the source list for Cowpea mosaic virus [CPMV]?
**A.** immune cell recruitment and activation in the lungs (in words) [1]: did not produce a significant impact; reduction of the ratio of tumor:total cells (B16F10 melanoma cells; H&E lung histology, QuPath (FIG. 4F)): 1.7 fold; decrease of tumor nodules (tumor burden) in the lungs compared to PBS (B16F10 melanoma cells; first study (FIG. 4C), 200 μg i.v. 7 days before challenge, lungs 2 weeks post challenge): 2.1 fold; reduction of tumor nodules compared to PBS (B16F10 melanoma cells; repeated experiment (FIG. 4D)): 1.7 fold; time by which all mice died or reached clinical endpoints (4T1-Luc cells [2]): ≤ 15 days; tumor burden / tumor growth by bioluminescence (in words) (4T1-Luc cells [2]): significant tumor burden; also recorded: unable to slow 4T1-Luc tumor growth; decrease in tumor nodules compared to PBS (4T1-Luc cells [3]; 225 μg i.v. 5 days before challenge, lungs harvested after 25 days): 10.6 fold; tumor growth by luminescent imaging (in words) (4T1-Luc cells [3]; IVIS every 3 days, up to day 21): no signs of tumor growth by day 21; side effects (in words) (4T1-Luc cells [3]; throughout the experiment): no apparent side effects were observed; weight of the mice (in words) (4T1-Luc cells [3]; tracked every 3 days throughout the experiment): stayed fairly consistent; association/co-localization with S100A9 (in words) (S100A9 [4]): no association with S100A9; TLR and/or NOD agonism / immunostimulation (in words) ([5]; CPMV, peptide-conjugated CPMV and peptides only, 10 μg, 24 h (FIG. 6A)): strong TLR and/or NOD agonists; immunogenicity, activation of NF-κB and AP-1, CPMV compared to CCMV (in words) [5]: much more immunogenic compared to CCMV; also recorded: higher level of activation; also recorded: immunostimulated by CPMV; accumulation/clearance in liver (share of fluorescence signal) [6]: 75%; lung homing (in words) [6]: do not home to the lungs; also recorded: did not accumulate in the lungs

**Q.** For cowpea chlorotic mottle virus [CCMV], which “effect on tumor burden in the lungs (in words)” value (B16F10 melanoma cells; first study (FIG. 4C), compared to PBS) is on record?
**A.** This effect was not seen

**Q.** What about the “immunogenicity, activation of NF-κB and AP-1, CPMV compared to CCMV (in words)” value [5] of the same molecule?
**A.** immunostimulated by CPMV and not CCMV

**Q.** And the “accumulation/clearance in liver (share of fluorescence signal)” value [6]?
**A.** 75%

**Q.** And the “lung homing (in words)” value [6]?
**A.** does not home to the lungs

**Q.** Which Kd (S100A9 [7]) does the source give for “peptide that binds S100A9, ACNSHRHGACGGGS (SEQ ID NO: 12) [MTP5]” here?
**A.** 67.6 µM

**Q.** With “peptide that binds S100A9, ACNSVHQHHCGGGS (SEQ ID NO: 13) [MTP6]” as the molecule, how does the Kd (S100A9 [7]) read?
**A.** 39.6 µM

**Q.** For “peptide that binds S100A9, ASSHIHHGGGS (SEQ ID NO: 10) [MTP2]”, which Kd (S100A9 [7]) is on record?
**A.** 77.6 µM

**Q.** For “peptide that binds S100A9, HNHMADPGGGS (SEQ ID NO: 11) [MTP3]”, which Kd (S100A9 [7]) is on record?
**A.** 117 µM

**Q.** For “scrambled control peptide MDPHAHNGGGS (SEQ ID NO: 16) [reference compound]”, which KD (S100A9 [7]) is on record?
**A.** no binding

B1: S100A9 (S100 calcium-binding protein A9), endogenous, in lung sections of B16F10 tumor-bearing C57BL/6 mice (other)
chain: ANKAPSQMERSITTIIDTFHQYSRKEGHPDTLSKKEFRQMVEAQLATFMKKEKRNEALINDIMEDLDTNQDNQLSFEECMMLMAKLIFACHEKLHENNPRGHGHSHGKGCGK
notes: also called MRP14; calgranulin B
**Q.** Does B1 bind [8]?
**A.** no binding
